This note sets out measurements from US20110091473A1, “NOVEL ANTIBODY THERAPIES” (GENMAB A/S, priority 2007, published 2011).

This assay relates to freshly isolated human lymphoma B cells. Briefly: Rituximab-mediated CDC of freshly isolated human lymphoma B cells, MTT assay. The assay is classed as cell-based. The note with it: 10 mg/ml MβCD 30 minutes; 400 μg/ml rituximab, 10% serum. As to the method:
To extend these observations the influence of cholesterol depletion was studied in freshly isolated human lymphoma B cells. Tumor cells of three mantle cell lymphomas and a small B cell lymphoma were isolated out of bone marrow (10 ml) aspirated from the hip. The cell suspension was diluted twice with PBS (final volume 20 ml). 3 ml of Histopaque-1077 (Sigma Aldrich) was pipetted into two conical centrifuge tubes. 10 ml of diluted bone marrow was slowly layered on the top of Histopaque layer. Probes were centrifuged (400 g, 15 minutes, 25° C.) without brake. The white blood cell ring and plasma were isolated and washed twice with PBS. The leucocyte pellet was resuspeneded in 5 ml medium (RPMI or OptiMEM) and counted in a Bürker chamber using Turk dye. Cells were incubated with either diluent or MβCD (10 mg/ml) for 30 minutes. Treated cells were analyzed for their capacity to bind CD20 mAb as well as sensitivity for rituximab-mediated CDC induction.
For the rituximab-mediated CDC human CD20-positive lymphoma B cells were incubated with either diluent or 10 mg/ml MβCD for 30 minutes. […] The cytotoxic effects were measured in a MTT assay.
For orientation: Tetrazolium assays rely on reduction of a dye to a coloured formazan, in cell work by metabolically active cells.

For the substance “rituximab: anti-CD20 antibody Rituxan/MabThera, type I”, the “rituximab-mediated CDC” value is listed as “significantly decreased”.
